From US20090035394A1, “USE OF DNA-PK INHIBITION TO SENSITISE ATM DEFICIENT CANCERS TO DNA-DAMAGING CANCER THERAPIES” (priority 2005, published 2009)
“Also recorded” adds a separate entry of the source.

What was measured:
Type in all cases: cell-based, human
[1] = tested on: pEBS7 (ATM-null) cells; assay: Chemopotentiation, sulforhodamine B growth assay in 96 well plates; conditions: for % survival / Avg (absorbance at 564 nm): pEBS7
Procedure: (§1) The A-T fibroblast AT221JE-T cells (pEBS7, herein referred to as ATM-null cells) and the trans-complemented ATM+/+ (pEBS7-YZ5, herein referred to as ATM-competent cells) were grown in DMEM+20% FBS PSG and 100 ug/ml hygromycin. These cells are immortalised fibroblasts from an A-T patient which were transfected with pEBS7-YZ5 vector coding for full length ATM and the hygromycin resistance marker or pEBS7 vector, coding for the hygromycin resistance marker only. (Ziv Y et al (1997) Oncogene 15, 159-67)
(§2) Following a 4-hour incubation to allow cell adherence, 5 μl DNA-PKcS inhibitor KU-0060648 (final concentration 0.5 μM) or DMSO/PBS equivalent was added. After a further 1 hour incubation, 5 μl of chemotherapeutic drug was added per well (see table 1). Drugs were removed after 16 hours and 150 μl fresh medium added per well. After 24h, one plate for each cell line was fixed and stained to account for background differences between the lines. Five days after seeding, the medium was aspirated from the wells of the remaining assay plates and 100 μl ice cold 10% TCA added for 30 minutes at 4° C. The wells were then washed four times with tap water and 50 μl 0.4% sulforhodamine B in 1% acetic acid added per well. After 15 minutes incubation at room temperature, excess stain was washed from the wells with 1% acetic acid. 100 μl […] pH6.8 was then added per well, the plates shaken to resuspend the stain and the absorbance at 564 nm determined.

[2] = tested on: pEBS7-YZ5 (ATM-competent, ATM+/+) cells; assay: as above; conditions: for % survival / Avg (absorbance at 564 nm): pEBS7-YZ
Procedure: as §1, §2

[3] = tested on: pEBS7 (ATM-null) cells; assay: Radio-potentiation, colony formation after ionising radiation; conditions: for % survival: ATM-null pEBS7
Procedure: as §1
(§3) To show radio-potentiation, 2×10^5 cells per well were seeded into 6 well cluster plates. One plate was used for each dose of irradiation. After allowing the cells to adhere for 4 hours, the cells were dosed with a final concentration of 0.5 μM of the DNA-PKcs inhibitor KU-0060648 or equivalent DMSO/PBS control. After further incubation for 1 hour, the cells were irradiated with 0, 0.5, 1, 2 and 4 Grays. After 16 hours incubation, the cells were washed with 1 ml PBS and 500 μl trypsin EDTA added for 5 minutes at 37° C. 1.5 ml fresh medium was then added and the cell density in the untreated (0 Gy) wells determined. All subsequent calculations for seeding densities were performed according to this cell count. Cells were then replated into 2 mls fresh medium in 6 well cluster plates at the appropriate cell densities. After 6 days' incubation, the medium was removed by aspiration and cell colonies stained using 400 μl per well Giemsa stain for 20 minutes. Excess stain was washed from the plates with tap water and the plates left to air-dry. The number of colonies per well was then counted using Colcount software.

[4] = tested on: pEBS7-YZ5 (ATM-competent, ATM+/+) cells; assay: as above; conditions: for % survival: ATM-competent pEBS7-YZ
Procedure: as §1, §3

[5] = KU-0060648 0.5 μM + doxorubicin 0
[6] = KU-0060648 0.5 μM + doxorubicin 0.01 (unit not given)
[7] = KU-0060648 0.5 μM + doxorubicin 0.025 (unit not given)
[8] = KU-0060648 0.5 μM + doxorubicin 0.05 (unit not given)
[9] = KU-0060648 0.5 μM + doxorubicin 0.075 (unit not given)
[10] = KU-0060648 0.5 μM + doxorubicin 0.1 (unit not given)
[11] = KU-0060648 0.5 μM + doxorubicin 0.25 (unit not given)
[12] = KU-0060648 0.5 μM + doxorubicin 0.5 (unit not given)
[13] = KU-0060648 0.5 μM + doxorubicin 0.75 (unit not given)
[14] = KU-0060648 0.5 μM + doxorubicin 1 (unit not given)
[15] = KU-0060648 0.5 μM + doxorubicin 2.5 (unit not given)
[16] = KU-0060648 0.5 μM + doxorubicin 5 (unit not given)
[17] = KU-0060648 0.5 μM + etoposide 0
[18] = KU-0060648 0.5 μM + etoposide 0.01 (μg/ml per Table 1)
[19] = KU-0060648 0.5 μM + etoposide 0.025 (μg/ml per Table 1)
[20] = KU-0060648 0.5 μM + etoposide 0.05 (μg/ml per Table 1)
[21] = KU-0060648 0.5 μM + etoposide 0.075 (μg/ml per Table 1)
[22] = KU-0060648 0.5 μM + etoposide 0.1 (μg/ml per Table 1)
[23] = KU-0060648 0.5 μM + etoposide 0.25 (μg/ml per Table 1)
[24] = KU-0060648 0.5 μM + etoposide 0.5 (μg/ml per Table 1)
[25] = KU-0060648 0.5 μM + etoposide 0.75 (μg/ml per Table 1)
[26] = KU-0060648 0.5 μM + etoposide 1 (μg/ml per Table 1)
[27] = KU-0060648 0.5 μM + etoposide 2.5 (μg/ml per Table 1)
[28] = KU-0060648 0.5 μM + etoposide 5 (μg/ml per Table 1)

## CCN1CCN(CC(=O)Nc2ccc(-c3cccc4c(=O)cc(N5CCOCC5)oc34)c3sc4ccccc4c23)CC1 [KU-0060648, 2-(4-Ethyl-piperazin-1-yl)-N-[4-(2-morpholin-4-yl-4-oxo-4H-1-benzopyran-8-yl)-dibenzothiophen-1-yl]-acetamide]
[1]; ATM-null cells
  potentiation of etoposide: increased sensitisation; also recorded: significantly potentiated
  potentiation of the effect of doxorubicin: increased sensitivity; also recorded: significantly potentiate
[1]; [5]
  % survival: 100%
  Avg (absorbance at 564 nm): 1.42
[1]; [6]
  % survival: 107.9%
  Avg (absorbance at 564 nm): 1.53
[1]; [7]
  % survival: 87.0%
  Avg (absorbance at 564 nm): 1.23
[1]; [8]
  % survival: 81.3%
  Avg (absorbance at 564 nm): 1.15
[1]; [9]
  % survival: 82.3%
  Avg (absorbance at 564 nm): 1.17
[1]; [10]
  % survival: 88.7%
  Avg (absorbance at 564 nm): 1.26
[1]; [11]
  % survival: 22.1%
  Avg (absorbance at 564 nm): 0.31
[1]; [12]
  % survival: 6.2%
  Avg (absorbance at 564 nm): 0.09
[1]; [13]
  % survival: 0.6%
  Avg (absorbance at 564 nm): 0.01
[1]; [14]
  % survival: −2.2%
  Avg (absorbance at 564 nm): −0.03
[1]; [15]
  % survival: −2.0%
  Avg (absorbance at 564 nm): −0.03
[1]; [16]
  % survival: −0.8%
  Avg (absorbance at 564 nm): −0.01
[1]; [17]
  % survival: 100%
  Avg (absorbance at 564 nm): 1.61
[1]; [18]
  % survival: 84.7%
  Avg (absorbance at 564 nm): 1.36
[1]; [19]
  % survival: 72.7%
  Avg (absorbance at 564 nm): 1.17
[1]; [20]
  % survival: 72.7%
  Avg (absorbance at 564 nm): 1.17
[1]; [21]
  % survival: 62.3%
  Avg (absorbance at 564 nm): 1.00
[1]; [22]
  % survival: 27.9%
  Avg (absorbance at 564 nm): 0.45
[1]; [23]
  % survival: 13.6%
  Avg (absorbance at 564 nm): 0.22
[1]; [24]
  % survival: 7.9%
  Avg (absorbance at 564 nm): 0.13
[1]; [25]
  % survival: 1.2%
  Avg (absorbance at 564 nm): 0.02
[1]; [26]
  % survival: −0.4%
  Avg (absorbance at 564 nm): −0.01
[1]; [27]
  % survival: −1.5%
  Avg (absorbance at 564 nm): −0.02
[1]; [28]
  % survival: −1.7%
  Avg (absorbance at 564 nm): −0.03
[2]; ATM-competent cells
  potentiation of etoposide: not
  potentiation of the effect of doxorubicin: not
[2]; [5]
  % survival: 100%
  Avg (absorbance at 564 nm): 1.62
[2]; [6]
  % survival: 92.3%
  Avg (absorbance at 564 nm): 1.50
[2]; [7]
  % survival: 96.1%
  Avg (absorbance at 564 nm): 1.56
[2]; [8]
  % survival: 102.9%
  Avg (absorbance at 564 nm): 1.67
[2]; [9]
  % survival: 94.1%
  Avg (absorbance at 564 nm): 1.53
[2]; [10]
  % survival: 98.5%
  Avg (absorbance at 564 nm): 1.60
[2]; [11]
  % survival: 80.4%
  Avg (absorbance at 564 nm): 1.30
[2]; [12]
  % survival: 36.6%
  Avg (absorbance at 564 nm): 0.59
[2]; [13]
  % survival: 23.4%
  Avg (absorbance at 564 nm): 0.38
[2]; [14]
  % survival: 1.1%
  Avg (absorbance at 564 nm): 0.02
[2]; [15]
  % survival: −2.1%
  Avg (absorbance at 564 nm): −0.03
[2]; [16]
  % survival: −1.9%
  Avg (absorbance at 564 nm): −0.03
[2]; [17]
  % survival: 100%
  Avg (absorbance at 564 nm): 1.79
[2]; [18]
  % survival: 88.8%
  Avg (absorbance at 564 nm): 1.59
[2]; [19]
  % survival: 84.9%
  Avg (absorbance at 564 nm): 1.52
[2]; [20]
  % survival: 87.2%
  Avg (absorbance at 564 nm): 1.56
[2]; [21]
  % survival: 86.1%
  Avg (absorbance at 564 nm): 1.54
[2]; [22]
  % survival: 88.9%
  Avg (absorbance at 564 nm): 1.59
[2]; [23]
  % survival: 102.7%
  Avg (absorbance at 564 nm): 1.84
[2]; [24]
  % survival: 55.0%
  Avg (absorbance at 564 nm): 0.99
[2]; [25]
  % survival: 27.6%
  Avg (absorbance at 564 nm): 0.49
[2]; [26]
  % survival: 4.5%
  Avg (absorbance at 564 nm): 0.08
[2]; [27]
  % survival: 5.7%
  Avg (absorbance at 564 nm): 0.10
[2]; [28]
  % survival: 8.6%
  Avg (absorbance at 564 nm): 0.15
[3]; ATM-null cells
  potentiation of the effect of irradiation: increased sensitivity; also recorded: significantly potentiate
[3]; KU-0060648 0.5 μM + IR 0 Gy
  % survival: 100.0%
[3]; KU-0060648 0.5 μM + IR 0.5 Gy
  % survival: 15.8%
[3]; KU-0060648 0.5 μM + IR 1 Gy
  % survival: 3.8%
[3]; KU-0060648 0.5 μM + IR 2 Gy
  % survival: 1.3%
[3]; KU-0060648 0.5 μM + IR 4 Gy
  % survival: 0.3%
[3]; single 2 Gy without / with KU-0060648 (0.5 μM), pEBS7 (ATM-null)
  2Gy DMR (dose modification ratio): 5.7
[4]; ATM-competent cells
  potentiation of the effect of irradiation: not
[4]; KU-0060648 0.5 μM + IR 0 Gy
  % survival: 100.0%
[4]; KU-0060648 0.5 μM + IR 0.5 Gy
  % survival: 39.3%
[4]; KU-0060648 0.5 μM + IR 1 Gy
  % survival: 13.5%
[4]; KU-0060648 0.5 μM + IR 2 Gy
  % survival: 6.2%
[4]; KU-0060648 0.5 μM + IR 4 Gy
  % survival: 1.7%
[4]; single 2 Gy without / with KU-0060648 (0.5 μM), pEBS7-YZ (ATM-competent)
  2Gy DMR (dose modification ratio): 2.0
